Measurements reported in US6352833B1, “Methods for discovery of vasoactive compounds for the nitric oxide-cyclic GMP signal pathway” (priority 1999, dated 2002).

Tests used:
[1] = system: Gαq/Gα11; assay: Immunoprecipitation of Gαq/Gα11 from 32P-labeled platelets; format: cell-based, human; conditions: 32P-labeled platelets treated with compound
Excerpt: (§1) In separate immunoprecipitation experiments, we also examined whether Gαq/Gα11 or its effector PLCβ, were phosphorylated in response to NO or cGMP. Anti-Gαq/Gα11 antibodies were obtained from D. Manning (University of Pennsylvania; Woolkalis, M. J. et al., 1986, J. Biol. Chem. 261:3408-3413).

[2] = system: PLCβ; assay: PLCβ phosphorylation in platelets (PLCβ antibodies); format: cell-based, human; conditions: monoclonal and polyclonal PLCβ antibodies
Excerpt: as §1

[3] = system: thrombin receptor; assay: Thrombin receptor-mediated vascular smooth muscle cell activation; format: cell-based; conditions: FIG. 6A-6C; effect reversed by inhibition of G kinase
Excerpt: The activation of vascular smooth muscle cells by thrombin receptor is inhibited by nitric oxide (FIG. 6A). […] This effect is reversed by inhibition by G kinase.

[4] = system: TXA2-specific GTPase in human platelet membranes; assay: TXA2 receptor-coupled GTPase activity in human platelet membranes; format: biochemical
Procedure: Platelets were prepared from plateletpheresis units as described (Benka, M. L. et al., 1995, supra; Zhu, Y. et al., 1994, supra).
TXA2-stimulated GTPase activity was measured in platelet membranes by initiating reactions by the addition of 20-45 μg of platelet membranes to tubes in the absence or presence of 10 μM of the thromboxane analog, U46619, (Benka, M. L. et al., The MBL Physiology Course, Busa, W. B. & Mendelsohn, M. E., 1995, FEBS Lett. 363: 49-52). The final reaction mixture (total volume=100 μl) contained 0.4 μM GTP, including 0.6-0.9 μCi of [γ-^32P]GTP(1.5-2×10^6 dpm), as well as 100 mM NaCl, 0.1 mM EGTA, 2 mM MgCl2, 1 mM dithiothreitol, 0.1 mM ATP, 5 mM phosphocreatine, 100 units/ml creatine phosphokinase, 0.2% bovine serum albumin, 50 mM triethanolamine HCl, pH 7.4, and indicated concentrations of agonist.
[…] GTPase reactions were terminated with 5% activated charcoal/20 mM phosphoric acid, and high affinity GTPase activity was measured and calculated (Shenker, A. et al., 1991, J. Biol. Chem. 268: 26011-26017; Benka et al., supra).

[5] = target: T1, TXA2 receptor (Homo sapiens, UniProt P21731); assay: In vivo phosphorylation of TXA2 receptors in 32P-labeled HEL cells; format: cell-based
T1 construct: HEL cells, which contain high densities of the platelet TXA2 receptor; endogenous in cells; host or cells: HEL cells
T1 sequence (P21731 1-343): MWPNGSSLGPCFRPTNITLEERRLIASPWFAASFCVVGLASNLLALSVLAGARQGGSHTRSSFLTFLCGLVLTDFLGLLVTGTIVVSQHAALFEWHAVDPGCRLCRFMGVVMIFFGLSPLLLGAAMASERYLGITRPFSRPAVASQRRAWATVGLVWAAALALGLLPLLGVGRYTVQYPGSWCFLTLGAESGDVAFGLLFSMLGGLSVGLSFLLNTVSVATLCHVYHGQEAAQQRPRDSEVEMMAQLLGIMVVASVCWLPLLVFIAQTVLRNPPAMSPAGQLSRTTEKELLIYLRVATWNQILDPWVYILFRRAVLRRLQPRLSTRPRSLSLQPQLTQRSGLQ
Procedure: To examine whether cGMP can lead to phosphorylation of TXA2 receptors in vivo, studies were performed using HEL cells, which contain high densities of the platelet TXA2 receptor (Allan, C. J. et al., 1996, J. Pharmacol. Exp. Ther. 277:1132-1139; Mayeux, P. R. et al., 1989, J. Pharmacol. Exp. Ther. 250:923-927).
HEL cells were labeled with ^32P (Mendelsohn, M. E. et al., 1991, supra) and then exposed to buffer alone (10 minutes), U46619 (5 μM, 10 minutes), or 8-Br-cGMP (10 mM, 15 minutes). Reactions were terminated by addition of ice-cold TEB buffer: 20 mM Tris-Cl, pH 7.4, 5 mM EGTA, 0.128 mg/ml phenylmethylsulfonyl fluoride, 0.15 mg/ml benzamidine Cl, followed by preparation of solubilized TXA2 receptor fractions in CHAPS buffer: 20 mM Tris-Cl, pH 7.4, 5 mM EGTA, 25% glycerol, 0.128 mg/ml phenylmethylsulfonyl fluoride, 0.15 mg/ml benzamidine Cl, 10 mM CHAPS (Schror, K. et al., 1995, Biochem. Pharmacol. 49: 921-927). TXA2 receptor fractions were then purified on and eluted from TXA2 antibody affinity beads, resolved by SDS-PAGE, and transferred to nitrocellulose. Receptor was quantified by immunoblotting and phosphorylation was quantitated by PhosphorImager analysis (Mendelsohn, M. E. et al., 1991, supra). […]

Structure (SMILES) | Gαq/Gα11 G protein phosphorylation [1] | phosphorylation of PLCβ [2] | inhibition of thrombin receptor-mediated vascular smooth muscle cell activation [3] | further results
CC(=O)N[C@@H](CSN=O)C(=O)O [S-nitroso-N-acetylcysteine] | did not demonstrate any significant G protein phosphorylation |  |  | 
Nc1nc2c(ncn2[C@@H]2O[C@@H]3COP(=O)(O)O[C@H]3[C@H]2O)c(=O)[nH]1 [cyclic GMP] |  | no increase in phosphorylation of PLCβ | inhibition | 
Nc1nc2c(nc(Br)n2[C@@H]2O[C@@H]3COP(=O)(O)O[C@H]3[C@H]2O)c(=O)[nH]1 [8-Br-cGMP, 8-bromo-cyclic GMP] | did not demonstrate any significant G protein phosphorylation |  |  | IC50 ([4]; platelet membranes pretreated 10 minutes at room temperature before U46619 stimulation, n=3 experiments in triplicate, read-out: mean IC50, inhibition of U46619-stimulated GTPase activity): 75 nM; decrease of basal platelet membrane GTPase activity ([4]; pretreatment with 500 μm 8-Br-cGMP, n=4): 8±9%; TXA2 receptor phosphorylation ([5]; 10 mM, 15 minutes): clear and significant increases in TXA2 receptor phosphorylation to a level comparable with agonist-induced phosphorylation
[N]=O [nitric oxide] |  | no increase in phosphorylation of PLCβ | inhibited | 
CCCCC[C@H](O)/C=C/[C@@H]1[C@@H](C/C=C\CCCC(=O)O)[C@H]2CO[C@@H]1C2 [U46619] |  |  |  | average increase in GTPase activity (stimulation of TXA2-specific GTPase) ([4]; untreated platelet membranes, 10 μM U46619, n=three experiments in triplicate): 5.5±1.3 pmol of 32P/min/mg platelet pr; TXA2 receptor phosphorylation ([5]; 5 μM, 10 minutes): phosphorylated
